Test results as given in patent US9296698B2, “Amino heteroaryl compounds as beta-secretase modulators and methods of use” (Amgen Inc., priority 2009, dated 2016).
Where two headings read alike, the source gives them in different places.

Key:
[1] = molecular target: BACE 1 (Beta Secretase enzyme) (Homo sapiens, UniProt P56817); assay: In vitro enzymatic BACE FRET assay; type: biochemical
Protocol: In Vitro Enzymatic BACE FRET (Fluorescence Resonance Energy Transfer) Assay (Enzyme Assay Data in Table 1)
The assay buffer used in this screen is 0.05 M acetate, pH 4.2, 10% DMSO final, 100 uM genapol (which is a nonionic detergent, below its Critical Micelle Concentration). […] The assay is effectively started by the addition of FRET substrate (50 nM) and the combination is incubated for one hour. The FRET assay is terminated with by addition of Tris buffer, which raises the pH to neutrality, and the fluorescence is determined. The FRET substrate is a peptide with commercially available fluorophore and quencher, on opposite sides of the BACE cleavage site.

[2] = test system: Aβ40 in conditioned medium of cells stably expressing Amyloid Precursor Protein (APP); assay: In vitro BACE cell-based assay (HEK cell assay), Aβ40 sandwich ELISA
Protocol: In Vitro BACE Cell-Based Assay:
The cell-based assay measures inhibition or reduction of Aβ40 in conditioned medium of test compound treated cells expressing amyloid precursor protein.
Cells stably expressing Amyloid Precursor Protein (APP) were plated at a density of 40K cells/well in 96 well plates (Costar). The cells were cultivated for 24 hours at 37° C. and 5% CO2 in DMEM supplemented with 10% FBS. The test compounds were then added to cells in 10-point dose response concentrations with the starting concentration being either 100 μM or 10 μM. The compounds were diluted from stock solutions in DMSO and the final DMSO concentration of the test compounds on cells was 0.1%. After 24 h of incubation with the test compounds the supernatant conditioned media was collected and the Aβ 40 levels were determined using a sandwich ELISA. The IC50 of the compound was calculated from the percent of control or percent inhibition of Aβ 40 as a function of the concentration of the test compound.
The sandwich ELISA to detect Aβ 40 was performed in 96 well microtiter plates, which were pre-treated with goat anti-rabbit IgG (Pierce). The capture and detecting antibody pair that were used to detect Aβ 40 from cell supernatants were affinity purified pAb40 (Biosource) and biotinylated 6E10 (Signet Labs Inc.), respectively. The optimal concentration for the pAb40 antibody was 3 μg/ml in Superblock/TBS (Pierce) that was supplemented with 0.05% Tween 20 (Sigma).
Cellular supernatants were incubated with the capture antibody for 3 h at 4° C., followed by 3 wash steps in TBS-tween (0.05%). The detecting antibody incubation was for 2 h at 4° C., again followed by the wash steps as described previously. The final readout of the ELISA is Time-Resolved Fluorescence (counts per minute) using Delfia reagents Streptavidin-Europium and Enhancement solutions (Perkin Elmer) and the Victor 2 multilabel counter (Perkin Elmer).

[3] = IC50 range symbols, Table 1, read-out: BACE 1 FRET assay
[4] = bound stated, read-out: IC50 value in the FRET BACE enzyme assay
[5] = Homo sapiens, HEK293, 24 h, IC50 range symbols, Table 1, Aβ40, 24 h incubation, read-out: HEK cell assay
[6] = IC50 range symbols, Table 1, Aβ40, 24 h incubation, read-out: HEK cell assay

BACE 1 (Beta Secretase enzyme), sequence (P56817 46-501, species assumed): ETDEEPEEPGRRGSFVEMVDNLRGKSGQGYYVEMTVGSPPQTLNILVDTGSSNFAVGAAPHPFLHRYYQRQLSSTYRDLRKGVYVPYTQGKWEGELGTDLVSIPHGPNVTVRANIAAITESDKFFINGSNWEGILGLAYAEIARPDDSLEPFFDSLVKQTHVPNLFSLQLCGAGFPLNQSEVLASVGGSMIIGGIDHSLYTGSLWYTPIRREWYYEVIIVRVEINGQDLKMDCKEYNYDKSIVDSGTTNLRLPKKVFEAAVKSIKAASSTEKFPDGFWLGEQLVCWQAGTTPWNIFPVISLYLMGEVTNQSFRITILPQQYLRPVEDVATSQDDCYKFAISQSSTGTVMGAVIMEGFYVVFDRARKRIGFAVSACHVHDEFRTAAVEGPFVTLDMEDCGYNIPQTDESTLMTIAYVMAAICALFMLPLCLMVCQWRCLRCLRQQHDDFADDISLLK

Molecule	IC50 [1, 3] [nM]	IC50 [1, 4] [nM]	IC50 [2, 5] [nM]	IC50 ([2]; Homo sapiens, HEK293, bound stated in text, read-out: IC50 value in the BACE cell-based in-vitro assay) [nM]	IC50 [2, 6] [nM]
CNC(=O)[C@H](C)Cc1cc2cc(-c3c(C)cccc3C(=O)N3CCCC3)ccc2nc1N [Example 9, (R)-3-(2-amino-6-(2-methyl-6-(pyrrolidine-1-carbonyl)phenyl)quinolin-3-yl)-N,2-dimethylpropanamide]	< 500	< 50	< 500	< 100	–
Cc1cccnc1-c1ccc2nc(N)c(CC(C)C(=O)NCCC(C)C)cc2c1 (stereo not drawn) [Example 109, 3-(2-amino-6-(3-methylpyridin-2-yl)quinolin-3-yl)-N-isopentyl-2-methylpropanamide]	< 500	–	< 500	–	–
Cc1ccccc1-c1cc2cc(CC(C)C(=O)NCc3ccccc3)c(N)nc2cn1 (stereo not drawn) [Example 136, 3-(2-amino-6-o-tolyl-1,7-naphthyridin-3-yl)-N-benzyl-2-methylpropanamide]	< 500	< 50	1000 to 5000	–	–
CCC1CCN1C(=O)C(C)Cc1cc2cc(-c3ncccc3C)ccc2nc1N (stereo not drawn) [Example 118, 3-(2-amino-6-(3-methylpyridin-2-yl)quinolin-3-yl)-1-(2-ethylazetidin-1-yl)-2-methylpropan-1-one]	> 5000	–	> 5000	–	–
Cc1cccnc1-c1ccc2nc(N)c(CCC(=O)N[C@H](C)c3ccccc3OC(F)F)cc2c1 [Example 133, (R)-3-(2-amino-6-(3-methylpyridin-2-yl)quinolin-3-yl)-N-(1-(2-(difluoromethoxy)phenyl)ethyl)propanamide]	1000 to 5000	–	> 5000	–	–
3-(6-(3-chloropyridin-2-yl)quinolin-3-yl)-N-((4,4-difluorocyclohexyl)methyl)-2-methylpropanamide [Example 99]	< 500	–	–	–	1000 to 5000
CC(Cc1cc2cc(-c3ccccc3C#N)ccc2nc1N)C(=O)NC1CCOC(C)(C)C1 (stereo not drawn) [Example 142, 3-(2-amino-6-(2-cyanophenyl)-3-quinolinyl)-N-(2,2-dimethyltetrahydro-2H-pyran-4-yl)-2-methylpropanamide]	< 500	–	< 500	–	–
Cc1ccccc1-c1ccc2nc(N)c(CCC(=O)NCC(C)(C)C)cc2c1 [Example 21, 3-(2-amino-6-o-tolylquinolin-3-yl)-N-neopentylpropanamide]	< 500	–	> 5000	–	–
Cc1ccccc1-c1ccc2nc(N)c(CCC(=O)NCCC(C)(C)O)cc2c1 [Example 141, 3-(2-amino-6-(2-methylphenyl)-3-quinolinyl)-N-(3-hydroxy-3-methylbutyl)propanamide]	< 500	–	500 to 1000	–	–
Cc1cccnc1-c1ccc2nc(N)c(CC(C)C(=O)NCCC3(C)CC3)cc2c1 (stereo not drawn) [Example 102, 3-(2-amino-6-(3-methylpyridin-2-yl)quinolin-3-yl)-2-methyl-N-(2-(1-methylcyclopropyl)ethyl)propanamide]	< 500	–	< 500	–	–
3-(3-amino-7-o-tolylnaphthalen-2-yl)-N-(2-methoxy-2-methylpropyl)propanamide [Example 29]	500 to 1000	–	–	–	1000 to 5000
3-(2-amino-6-(2-((2-methoxyphenyl)carbonyl)phenyl)-3-quinolinyl)-N-(2,2-dimethyltetrahydro-2H-pyran-4-yl)-2-methylpropanamide [Example 146]	< 500	–	–	–	< 500
Cc1ccccc1-c1ccc2nc(N)c(CCC(=O)Nc3ccccc3)cc2c1 [Example 25, 3-(2-amino-6-o-tolylquinolin-3-yl)-N-phenylpropanamide]	< 500	–	500 to 1000	–	–
CNC(=O)C(C)Cc1cc2cc(-c3c(C)cccc3C(=O)N3CCCC3)ccc2nc1N (stereo not drawn) [Example 148, 3-(2-Amino-6-(2-methyl-6-(pyrrolidine-1-carbonyl)phenyl)quinolin-3-yl)-N, 2-dimethylpropanamide]	< 500	–	< 500	–	–
CC(Cc1cc2cc(-c3ncccc3CCN(C)C)ccc2nc1N)C(=O)NCCC(C)(C)C (stereo not drawn) [Example 127, 3-(2-amino-6-(3-(2-(dimethylamino)ethyl)pyridin-2-yl)quinolin-3-yl)-N-(3,3-dimethylbutyl)-2-methylpropanamide]	< 500	–	< 500	–	–
